In patent US8119621B2, “Tetrahydro-cyclopentyl pyrazole cannabinoid modulators” (Janssen Pharmaceutica N.V., priority 2005, dated 2012):
Where two headings read alike, the source gives them in different places.

What was measured:
human CB2 receptor = target: T1, human CB2 receptor (Homo sapiens, UniProt P34972); assay: Binding assay for CB2 agonists or inverse agonists ([3H]-CP-55,940 displacement, SK-N-MC membranes); conditions: read-out: CB2 receptor binding percent inhibition
T1 construct: expressed in transfected cells; host or cells: SK-N-MC cells, stably transfected with pcDNA3 CB-2 (human); semi-purified membrane pellet
T1 sequence (P34972 whole entry): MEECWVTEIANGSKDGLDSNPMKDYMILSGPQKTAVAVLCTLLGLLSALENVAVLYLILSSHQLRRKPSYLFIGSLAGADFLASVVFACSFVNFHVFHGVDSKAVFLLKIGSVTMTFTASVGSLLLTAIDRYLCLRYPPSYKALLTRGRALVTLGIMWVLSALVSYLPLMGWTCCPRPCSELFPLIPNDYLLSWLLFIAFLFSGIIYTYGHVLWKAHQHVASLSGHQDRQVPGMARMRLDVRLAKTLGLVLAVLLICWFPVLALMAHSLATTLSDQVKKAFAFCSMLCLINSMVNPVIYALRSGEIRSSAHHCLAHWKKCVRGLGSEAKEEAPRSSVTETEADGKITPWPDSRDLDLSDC
Description: (§1) The human CB1 and CB2 receptors were stably expressed in SK-N-MC cells transfected with pcDNA3 CB-1 (human) or pcDNA3 CB-2 (human). The cells were grown in T-180 cell culture flasks under standard cell culture conditions at 37° C. in a 5% CO2 atmosphere. The cells were harvested by trysinization and homogenized in a homogenization buffer (10 mM Tris, 0.2 mM MgCl2, 5 mM KCl, with protease inhibitors aprotinin, leupeptin, pepstatin A and bacitracin) and centrifuged (2000 g). The supernatant was then centrifuged in 2M sucrose (31,300 g) to produce a semi-purified membrane pellet. The pellet was resuspended in homogenization and stored at −80° C.
(§2) On the day of the assay, the pellet was thawed on ice and diluted in assay buffer (50 mM Tris-HCl, 5 mM MgCl2, 2.5 mM EDTA, 0.5 mg/mL fatty acid free bovine serum albumin, pH 7.5). […] The plate was covered and incubated for 90 minutes at 30° C. The contents were then aspirated onto a Packard Unifilter GF/C filter bottom plate prewet with 0.5% polyethyleneimine. The wells of the polypropylene plate were rinsed and aspirated seven times with a 0.9% saline-0.5% Tween 20 solution. The Unifilter plate was dried, a scintillation cocktail was added to each well and the counts representing binding were quantitated in a TopCount scintillation counter.
(§3) For compounds tested, an IC50 binding value was obtained from percent inhibition studies in which various test concentrations were used. The binding value was calculated by linear regression.

human CB1 receptor [1] = target: T2, human CB1 receptor (Homo sapiens, UniProt P21554); assay: Binding assay for CB1 agonists or inverse agonists ([3H]-CP-55,940 displacement, SK-N-MC membranes); conditions: for inhibition at 0.25 µM: read-out: CB1 receptor binding percent inhibition
T2 construct: expressed in transfected cells; host or cells: SK-N-MC cells, stably transfected with pcDNA3 CB-1 (human); semi-purified membrane pellet
T2 sequence (P21554 whole entry): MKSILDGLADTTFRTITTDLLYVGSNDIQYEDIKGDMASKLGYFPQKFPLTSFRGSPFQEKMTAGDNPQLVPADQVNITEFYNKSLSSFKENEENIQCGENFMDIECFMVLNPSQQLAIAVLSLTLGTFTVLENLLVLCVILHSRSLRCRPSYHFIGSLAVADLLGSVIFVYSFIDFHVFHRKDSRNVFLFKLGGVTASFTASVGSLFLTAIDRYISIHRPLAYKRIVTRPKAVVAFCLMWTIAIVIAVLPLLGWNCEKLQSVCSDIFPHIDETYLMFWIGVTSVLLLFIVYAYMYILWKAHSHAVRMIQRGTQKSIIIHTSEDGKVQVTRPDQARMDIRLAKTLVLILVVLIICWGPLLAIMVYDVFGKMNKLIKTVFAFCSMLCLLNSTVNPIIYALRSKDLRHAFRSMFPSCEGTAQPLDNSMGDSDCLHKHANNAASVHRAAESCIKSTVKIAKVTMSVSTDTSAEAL
Description: as §1, §2, §3

human CB1 receptor [2] = target: T2, human CB1 receptor; assay: Functional cell-based assay, CB1 receptor mediated change in CRE β-gal expression (adenylate cyclase activity); conditions: for CB1 Receptor Functional Activity (change in functional activity): one compound concentration, vehicle treated cell = 100%
Excerpt: The CB1 and CB2 receptors are G-protein coupled receptors (GPCR), which influence cell function via the Gi-protein. These receptors modulate the activity of intracellular adenylate cyclase, which in turn produces the intracellular signal messenger cyclic-AMP (cAMP).
At baseline, or during non-ligand bound conditions, these receptors are constitutively active and tonically suppress adenylate cyclase activity. The binding of an agonist causes further receptor activation and produces additional suppression of adenylate cyclase activity. The binding of an inverse agonist inhibits the constitutive activity of the receptors and results in an increase in adenylate cyclase activity.
Test compounds were evaluated in SK-N-MC cells which, using standard transfection procedures, were stably transfected with human cDNA for pcDNA3-CRE β-gal and pcDNA3 CB1 receptor (human) or pcDNA3 CB2 receptor (human). By expressing CRE β-gal, the cells produced β-galactosidase in response to CRE promoter activation by cAMP. Cells expressing CRE β-gal and either the human CB1 or CB2 receptor will produce less β-galactosidase when treated with a CB1/CB2 agonist and will produce more β-galactosidase when treated with a CB1/CB2 inverse agonist.
The cells were grown in 96-well plates under standard cell culture conditions at 37° C. in a 5% CO2 atmosphere. After 3 days, the media was removed and a test compound in media (wherein the media was supplemented with 2 mM L-glutamine, […] sodium pyruvate, 0.1% low fatty acid FBS (fetal bovine serum) and antibiotics) was added to the cell. The plates were incubated for 30 minutes at 37° C. and the plate cells were then treated with forskolin over a 4-6 hour period, then washed and lysed. The β-galactosidase activity was quantitated using commercially available kit reagents (Promega Corp. Madison, Wis.) and a Vmax Plate Reader (Molecular Devices, Inc).
The change in β-galactosidase activity was determined by setting a vehicle treated cell's activity value at 100% and expressing the β-galactosidase activity measured in a corresponding compound treated cell as a percent of the vehicle treated cell activity.
The EC50 value for functional activity for compounds tested was calculated by linear regression and was obtained from studies in which varying compound concentrations were used.
Where an EC50 value was not obtained for a test compound, the value shown (in %) represents change in functional activity and was obtained from a study in which one compound concentration was used.

[3] = test concentration 0.25 μM (footnote 3)
[4] = CB1 Receptor Functional Inverse Agonist EC50, SK-N-MC cells, CRE β-gal, forskolin

Row | SMILES | inhibition at 0.25 µM (human CB2 receptor; [3]) | inhibition at 0.25 µM (human CB1 receptor [1]; [3]) | EC50 (human CB1 receptor [2]; [4]) | EC50 (human CB1 receptor [2]) | CB1 Receptor Functional Activity (change in functional activity) (human CB1 receptor [2]) | inhibition at 0.25 µM (human CB1 receptor [1]) | inhibition at 0.25 µM (human CB2 receptor) | IC50 (human CB1 receptor [1])
1 | C[C@@H](NS(=O)(=O)/C=C/c1nn(-c2ccc(F)cc2F)c2c1CCC2Cc1cccc(F)c1)C1CCCCC1 (stereo partly drawn) [Cpd 5, (2E)-2-[1-(2,4-difluoro-phenyl)-6-(3-fluoro-benzyl)-1,4,5,6-tetrahydro-cyclopentapyrazol-3-yl]-ethenesulfonic acid [(1R)-1-cyclohexyl-ethyl]-amide] | 4% | 44% | 200 nM |  |  |  |  | 
2 | O=C(NN1CCCCC1)c1nn(-c2ccc(F)cc2F)c2c1CCC2Cc1cccc(F)c1 (stereo not shown) [Cpd 6, 1-(2,4-difluoro-phenyl)-6-(3-fluoro-benzyl)-1,4,5,6-tetrahydro-cyclopentapyrazole-3-carboxylic acid piperidin-1-ylamide] | 12% | 4% |  | 200 nM |  |  |  | 
3 | O=C(c1nn(-c2ccc(F)cc2F)c2c1CCC2Cc1cccc(F)c1)N1CCCCC1 (stereo not shown) [Cpd 8, [1-(2,4-difluoro-phenyl)-6-(3-fluoro-benzyl)-1,4,5,6-tetrahydro-cyclopentapyrazol-3-yl]-piperidin-1-yl-methanone] | 0% | 6% |  |  | 21% |  |  | 
4 | CCOC(=O)[C@H]1C2CCC(C2)[C@H]1NC(=O)c1nn(-c2ccc(F)cc2F)c2c1CCC2Cc1cccc(F)c1 (stereo partly drawn) [Cpd 13, (2S,3R)-3-{[1-(2,4-difluoro-phenyl)-6-(3-fluoro-benzyl)-1,4,5,6-tetrahydro-cyclopentapyrazole-3-carbonyl]-amino}-bicyclo[2.2.1]heptane-2-carboxylic acid ethyl ester] | 44% | 58% |  |  | 24% |  |  | 
5 | COC(=O)[C@@H](Cc1ccc(F)cc1)NC(=O)c1nn(-c2ccc(F)cc2F)c2c1CCC2Cc1cccc(F)c1 (stereo partly drawn) [Cpd 14, (2R)-2-{[1-(2,4-difluoro-phenyl)-6-(3-fluoro-benzyl)-1,4,5,6-tetrahydro-cyclopentapyrazole-3-carbonyl]-amino}-3-(4-fluoro-phenyl)-propionic acid methyl ester] | 30% | 50% |  |  | 48% |  |  | 
6 | COC(=O)[C@@H](Cc1ccc(O)cc1)NC(=O)c1nn(-c2ccc(F)cc2F)c2c1CCC2Cc1cccc(F)c1 (stereo partly drawn) [Cpd 15, (2R)-2-{[1-(2,4-difluoro-phenyl)-6-(3-fluoro-benzyl)-1,4,5,6-tetrahydro-cyclopentapyrazole-3-carbonyl]-amino}-3-(4-hydroxy-phenyl)-propionic acid methyl ester] | 50% | 54% |  |  | −15% |  |  | 
7 | O=C(NCc1ccccc1)c1nn(-c2ccc(F)cc2F)c2c1CCC2Cc1cccc(F)c1 (stereo not shown) [Cpd 16, 1-(2,4-difluoro-phenyl)-6-(3-fluoro-benzyl)-1,4,5,6-tetrahydro-cyclopentapyrazole-3-carboxylic acid benzylamide] | 0% |  | 400 nM |  |  | 26% |  | 
8 | C[C@H](NC(=O)c1nn(-c2ccc(F)cc2F)c2c1CCC2Cc1cccc(F)c1)c1ccccc1 (stereo partly drawn) [Cpd 18, 1-(2,4-difluoro-phenyl)-6-(3-fluoro-benzyl)-1,4,5,6-tetrahydro-cyclopentapyrazole-3-carboxylic acid [(1S)-1-phenyl-ethyl]-amide] | 19% | 66% |  | 10000 nM |  |  |  | 
9 | C[C@@H](NC(=O)c1nn(-c2ccc(F)cc2F)c2c1CCC2Cc1cccc(F)c1)c1ccccc1 (stereo partly drawn) [Cpd 19, 1-(2,4-difluoro-phenyl)-6-(3-fluoro-benzyl)-1,4,5,6-tetrahydro-cyclopentapyrazole-3-carboxylic acid [(1R)-1-phenyl-ethyl]-amide] | 26% | 52% |  | 200 nM |  |  |  | 
10 | C[C@H](NC(=O)c1nn(-c2ccc(F)cc2F)c2c1CCC2Cc1cccc(F)c1)C1CCCCC1 (stereo partly drawn) [Cpd 20, 1-(2,4-difluoro-phenyl)-6-(3-fluoro-benzyl)-1,4,5,6-tetrahydro-cyclopentapyrazole-3-carboxylic acid [(1S)-1-cyclohexyl-ethyl]-amide] |  |  |  |  | 37% | 70% | 44% | 
11 | C[C@@H](NC(=O)c1nn(-c2ccc(F)cc2F)c2c1CCC2Cc1cccc(F)c1)C1CCCCC1 (stereo partly drawn) [Cpd 21, 1-(2,4-difluoro-phenyl)-6-(3-fluoro-benzyl)-1,4,5,6-tetrahydro-cyclopentapyrazole-3-carboxylic acid [(1R)-1-cyclohexyl-ethyl]-amide] |  |  | 40 nM |  |  | 67% | 61% | 80 nM
